Data set [1] concerns HCT116 cells. The data set is described as follows: cell cycle analysis by flow cytometry (propidium iodide). To be noted: 1 μM and 2.5 μM, 48 hours. Type of data set: cell-based, human. The procedure:
(§1) FIG. 5 illustrates the effect of 1 μM and 2.5 μM MANIO on cell cycle progression (A) and apoptosis (B) in HCT116 p53+/+ and HCT116 p53−/− cells. (A) Cell cycle phases were analysed by flow cytometry using propidium iodide (PI) and quantified using the FlowJo software, after 48 hours MANIO treatment. […] (B) Apoptosis was analysed by flow cytometry using FITC-Annexin V and PI, after 48 hours or 72 hours MANIO treatment.
Background: Flow cytometry measures light scatter and fluorescence of single cells or particles in a stream.

In data set [2] the test system is p53 in HCT116 p53+/+ cells. The data set is described as follows: Western blot and RT-qPCR of p53 and p53 target genes. Type of data set: cell-based, human. The protocol: FIG. 6 illustrates the MANIO effect on protein levels of p53 (A), the mRNA (B) and protein (C) expression levels of p53 target genes and PARP cleavage, in HCT116 p53+/+ and HCT116 p53−/− cells. (B) mRNA levels of p53 target genes in HCT116 cells (MDM2, CDKN1A, GADD45A, BAX, TNFRSF10B, PUMA, NOXA), after 48 hours treatment with MANIO, or DMSO, determined by RT-qPCR. Fold of induction is relative to DMSO. […] Immunoblots represent one of three independent experiments. GAPDH was used as a loading control.
For orientation: In western blotting, separated proteins are transferred to a membrane and probed.

Data set [3] relates to HCT116 p53+/+ cells. The data set is described as follows: Comet assay (genotoxicity). It counts as cell-based, human. Conditions: MANIO 1 and 2.5 μM; etoposide 50 μM. The source says: Scale bar=20 μm; Magnification=200×.
For that purpose, the Comet assay was used, which measures the ability of genotoxic agents to induce DNA strand breaks in eukaryotic cells.

Data set [4] concerns HCT116 p53+/+ and HCT116 p53−/− cells. Kind of data set: colony formation assay. It counts as cell-based, human. To be noted: 14 days of treatment. The source says: FIG. 4 illustrates the effect of MANIO on HCT116 p53+/+ (A) and HCT116 p53−/− (B) cell colony formation after 14 days of treatment.
MANIO had p53-dependent anti-proliferative effect in colon carcinoma cells: The activity of the compound as wild-type p53 activator was studied in colon carcinoma cells with (HCT116 p53+/+) and without (HCT116 p53−/−) p53 (FIG. 3; Table 1). The IC50 value of MANIO in HCT116 p53+/+ cells was about […] lower than that obtained in HCT116 p53−/− cells, indicating a p53-dependent anti-proliferative effect.

The subject of data set [5] is mutant p53-expressing cancer cells (breast MDA-MB-468, rectum SW837, colon HT29, and hepatocarcinoma Huh-7 cells). Kind of data set: growth inhibition (SRB) in panel of mutant p53 cancer cell lines. Type of data set: cell-based. Conditions: Homo sapiens, range over MDA-MB-468, SW837, HT29, Huh-7, 48 hours, read-out: IC50 (concentration of compound that causes 50% growth inhibition). The procedure: (§2) FIG. 2 illustrates the growth inhibitory effect of MANIO in a panel of human cancer cell lines (HCT116 p53+/+, MCF7, H460, MDA-MB-468, HT-29, SW837, Huh-7, HCT116 p53−/−, H1299, HCC1937). IC50 values were determined by the sulforhodamine B assay after 48 hours treatment with MANIO. Data are mean±SEM (n=4-5).
(§3) The compound (3S)-6,7-bis(hydroxymethyl)-1H,3H-pyrrolo[1,2-c]thiazole, MANIO, inhibited the growth of tumor cells expressing wild-type and mutant p53 forms, with much lower anti-proliferative effect on p53-null cancer cells: The activity of the compound (FIG. 1, with R^1═H, R^2=Ph and R^3=Me) was tested in an array of cancer cell lines with different p53 status.

Data set [6] deals with p53-null cancer cells (colon HCT116 p53−/−, breast H1299 and HCC1937 cells). Kind of data set: growth inhibition (SRB) in panel of p53-null cancer cell lines. Type of data set: cell-based. Conditions: Homo sapiens, range over HCT116 p53−/−, 48 hours, read-out: IC50 (concentration of compound that causes 50% growth inhibition). The procedure: as §2, §3
Data set [7] concerns HCT116 p53+/+. The data set is described as follows: sulforhodamine B (SRB) growth inhibition assay. Type of data set: cell-based, human. Conditions: for IC50: HCT116 p53+/+, 48 hours incubation, SRB assay; for p53-dependence of anti-proliferative effect: comparison of IC50 in HCT116 p53+/+ and HCT116 p53−/−. The protocol:
(§4) Cancer cells were plated at 5.0×10^3 cells/well in 96-well plates and incubated for 24 hours. Cells were then exposed to serial dilutions of MANIO, CP-31398 or PRIMA-1MET (from 0.3 to 80 μM). The effect of the compounds was analyzed following 48 hours incubation, using the sulforhodamine B (SRB) assay. The solvent DMSO corresponding to the maximum concentration used in these assays (0.025%) was included as control. Results are the mean±S.E.M. of 3-5 independent experiments.
(§5) Cancer cells were plated in 96-well plates and incubated for 24 hours. Cells were then exposed to serial dilutions of compound (from 0.3 to 80 μM). The effect of the compound was analyzed following 48 hours incubation, using the sulforhodamine B (SRB) assay. The solvent DMSO corresponding to the maximum concentration used in these assays (0.025%) was included as control. Results are the mean±S.E.M. of 3-5 independent experiments.
A general note: The SRB assay estimates cell density from bound dye.

Data set [8] concerns HCT116 p53−/−. The data set is described as follows: sulforhodamine B (SRB) growth inhibition assay. It counts as cell-based, human. The protocol:
as §4, §5

For data set [9], the system named is skin cancer cell lines (A375, SCC4925, A375C5 cells). Kind of data set: anti-proliferative effect in skin cancer cell lines. Conditions: range over A375, SCC4925, A375C5 cells. It counts as cell-based.
Data set [10] concerns HCT116 cells. Kind of data set: apoptosis by flow cytometry (FITC-Annexin V and PI). Conditions: 1 μM and 2.5 μM, 48 hours or 72 hours. It counts as cell-based, human. The protocol: as §1
Data set [11] deals with MCF7 breast cancer cell lines. Conditions: cited from earlier work.
For data set [12], the system named is HCT116 p53+/+ tumors. Kind of data set: in vivo xenograft mouse model. To be noted: versus vehicle. Also on record: species or system Swiss nude mice. The protocol:
FIG. 10 illustrates the in vivo antitumor activity of MANIO. (A) Swiss nude mice were implanted subcutaneous with xenografts of 1.5×10^6 HCT116 p53+/+ cells. The treatment was initiated when palpable tumors were established (˜100 mm3) and consisted in 4 intraperitoneal injections (2 times per week) of vehicle (control) or 100 mg/kg of MANIO (n=5 for each group). […] (B) The tumor weight after MANIO or vehicle (control) treatment was measured; data are mean±SEM (*p<0.05; unpaired Student's t-test). […] This description is of course not in any way restricted to the forms of implementation presented herein and any person with an average knowledge of the area can provide many possibilities for modification thereof without departing from the general idea as defined by the claims. The preferred forms of implementation described above can obviously be combined with each other. The following claims further define the preferred forms of implementation.

The test system of data set [13] is wild-type p53-expressing cancer cells (colon HCT116 p53+/+, breast MCF7, and lung H460 cells). The data set is described as follows: growth inhibition (SRB) in panel of wild-type p53 cancer cell lines. It counts as cell-based. Conditions: Homo sapiens, range over HCT116 p53+/+, 48 hours, read-out: IC50 (concentration of compound that causes 50% growth inhibition). The protocol:
as §2, §3

Data set [14] has as its system mutant p53 forms ectopically expressed in p53-null H1299 cells. The data set is described as follows: growth inhibition (SRB) in mutant p53-transfected H1299 cells. To be noted: R282W, R248W, R280K, R273H, R273C, G245D, R175H, R248Q; 48 hours; versus empty vector. It counts as cell-based, human. The procedure:
FIG. 7 illustrates the growth inhibitory effect of MANIO in mutant p53-transfected H1299 cells. H1299 cells were transfected with pcDNA3 plasmid expressing different p53 mutants (R282W, R248W, R280K, R273H, R273C, G245D, R175H, R248Q, Y220C, G245S), or with the empty pcDNA3 plasmid, using ScreenFect®A. The growth inhibitory effect was evaluated by sulforhodamine B assay after 48 hours treatment with MANIO.

For data set [15], the system named is HCT116 p53+/+ cells. The data set is described as follows: wound healing assay (cell migration). Type of data set: cell-based, human. Conditions: 0.2 and 0.375 μM. The protocol: FIG. 9 illustrates the prevention of HCT116p53+/+ cell migration by MANIO. Confluent cells were treated with 0.20 and 0.375 μM MANIO or DMSO, and observed at different time-points in the wound healing assay (scale bar=50 μm and magnification=100×).
MANIO prevented cell migration of human colon cancer cells: The effect of MANIO on the migration ability of HCT116 p53+/+ cells was also studied.

Data set [16] relates to HT-29 (mutp53 R273H). Kind of data set: sulforhodamine B (SRB) growth inhibition assay. Type of data set: cell-based. Conditions: Homo sapiens, HT-29, 48 hours incubation. The protocol:
as §5

Data set [17] has as its system Huh-7 (mutp53 Y220C). The data set is described as follows: sulforhodamine B (SRB) growth inhibition assay. Type of data set: cell-based. To be noted: Homo sapiens, Huh-7, 48 hours incubation. The procedure:
as §5

For data set [18], the system named is HepG2 (wtp53). Kind of data set: sulforhodamine B (SRB) growth inhibition assay. Conditions: Homo sapiens, HepG2, 48 hours incubation. It counts as cell-based. The procedure:
as §5

For data set [19], the system named is MDA-MB-468 (mut p53 R273H). The data set is described as follows: sulforhodamine B (SRB) growth inhibition assay. To be noted: Homo sapiens, MDA-MB-468, 48 hours incubation. Type of data set: cell-based. The procedure: as §5
Data set [20] deals with SW837 (mutp53 R248W). Kind of data set: sulforhodamine B (SRB) growth inhibition assay. It counts as cell-based. To be noted: Homo sapiens, SW837, 48 hours incubation. The protocol:
as §5

Data set [21] concerns H1299 (p53-null). Kind of data set: sulforhodamine B (SRB) growth inhibition assay. It counts as cell-based. To be noted: Homo sapiens, NCI-H1299, H1299, 48 hours incubation. The protocol: as §5
Data set [22] relates to H460 (wtp53). The data set is described as follows: sulforhodamine B (SRB) growth inhibition assay. Type of data set: cell-based. To be noted: Homo sapiens, NCI-H460, H460, 48 hours incubation. The procedure: as §5
[23] abbreviates: Homo sapiens, HCT-116, 48 hours incubation.

Data on four compounds can be found in patent US12383537B2, “(3S)-and (3R)-6,7-bis(hydroxymethyl)-1H,3H-pyrrolo[1,2-c]thiazoles as P53 activators” (UNIVERSIDADE DE COIMBRA, priority 2018, dated 2025).

`Cc1c(CO)c(CO)c2n1[C@H](c1ccccc1)SC2` [MANIO, (3S)-6,7-Bis(hydroxymethyl)-5-methyl-3-phenyl-1H,3H-pyrrolo[1,2-c]thiazole]: the cell cycle progression entry in [1] is given as “induction of a G2/M-phase cell arrest”. Further, the “mRNA and proteins encoded by p53 target genes” value in data set [2] (1 μM) is given as “increased”. In data set [2] (1 μM, 24, 48 and 72 hours), the p53 protein levels result is listed as “increased the p53 protein levels”. Also, in [3], the “percentage of tail DNA (DNA damage)” value is “did not significantly increase the percentage of tail DNA”. Besides, the colony-forming ability result in data set [4] is recorded as “reduce the colony-forming ability of HCT116 in a p53-dependent manner”. The IC50 in data set [5] was 0.2 to 3.2 µM; in data set [6] it was 28.5 to 48.2 µM; in data set [7] (Homo sapiens, HCT-116) it was 0.96 ± 0.04 µM; in data set [8] (setting [23]), 48.2 ± 1.97 µM; in [9] it was 25 to 35 µM; in data set [13], 0.2 to 0.96 µM. In data set [7] (HCT116 p53+/+ versus HCT116 p53−/−), the “IC50 in HCT116 p53+/+ cells lower than in HCT116 p53−/− cells” value is reported as “about 50 fold”. The apoptosis result in data set [10] is “apoptotic cell death”. For the same compound, the anti-proliferative activity result in data set [11] is “potent anti-proliferative activity”. Also, the “mice weight during treatment” value in data set [12] (100 mg/kg intraperitoneal, 2 times per week) is “no significant differences between control and MANIO-treated mice weight”. Also, in data set [12] (four intraperitoneal administrations of 100 mg/kg), the “growth of the HCT116 p53+/+ tumors” value is given as “significantly inhibited”. Moreover, the “growth inhibition of cells transfected with p53 mutants” value in data set [14] is on record as “significant growth inhibition”. The wound closure result in data set [15] is given as “significantly reduced the wound closure”.
As to `COCC1(CO)C(=O)C2CCN1CC2` (stereo not drawn) [PRIMA-1^MET, reference compound], in data set [7], the IC50 amounted to 19.9 ± 4 µM and the “p53-dependence of anti-proliferative effect” value (“p53-dependence” for short) is listed as “lower p53-dependence than the compound”. The IC50 in [8] (48 hours incubation) was 13.1 ± 2 µM.
Turning to `Cc1c(CO)c(CO)c2n1[C@@H](c1ccccc1)SC2` [(3R)-6,7-Bis (hydroxymethyl)-5-methyl-3-phenyl-1H,3H-pyrrolo[1,2-c]thiazole], the IC50 in data set [7] (Homo sapiens, HCT-116) was 5.11 ± 0.42 µM; in data set [8] (setting [23]) it was 51.8 ± 2.73 µM; in data set [16] it was 5.88 ± 1.28 µM; in data set [17] it was 6.43 ± 0.32 µM; in data set [18], 50.3 ± 1.63 µM; in [19] it was 0.91 ± 0.0095 µM. For the same compound, the IC50 was 7.35 ± 0.89 µM in data set [20], 25.5 ± 2.38 µM in data set [21], 1.8 ± 0.089 µM in data set [22] and 25 to 35 µM in data set [9]. Besides, the “p53-dependence” value in [7] is “relevant p53-dependent anti-proliferative activity”. Moreover, the anti-proliferative activity result in data set [11] was “potent anti-proliferative activity”.
On to `COc1ccc(/C=C/c2nc(NCCCN(C)C)c3ccccc3n2)cc1` [CP-31398, reference compound], for which the IC50 was 3.4 ± 0.1 µM in data set [7] and 7.3 ± 0.6 µM in [8] (48 hours incubation). Further, in [7], the “p53-dependence” value is recorded as “lower p53-dependence than the compound”.
